Assay results reported in patent US9226916B2, “Pyrrolidine derivatives” (HOFFMANN-LA ROCHE INC., priority 2009, dated 2016).

molecular target: T1, recombinant human NK3 receptor (Homo sapiens, UniProt P29371); assay: [3H]SR142801 competition binding assay; details: not given
T1 construct: expressed in transfected cells; host or cells: HEK293 cells, transient expression; membranes
T1 sequence (P29371 1-465): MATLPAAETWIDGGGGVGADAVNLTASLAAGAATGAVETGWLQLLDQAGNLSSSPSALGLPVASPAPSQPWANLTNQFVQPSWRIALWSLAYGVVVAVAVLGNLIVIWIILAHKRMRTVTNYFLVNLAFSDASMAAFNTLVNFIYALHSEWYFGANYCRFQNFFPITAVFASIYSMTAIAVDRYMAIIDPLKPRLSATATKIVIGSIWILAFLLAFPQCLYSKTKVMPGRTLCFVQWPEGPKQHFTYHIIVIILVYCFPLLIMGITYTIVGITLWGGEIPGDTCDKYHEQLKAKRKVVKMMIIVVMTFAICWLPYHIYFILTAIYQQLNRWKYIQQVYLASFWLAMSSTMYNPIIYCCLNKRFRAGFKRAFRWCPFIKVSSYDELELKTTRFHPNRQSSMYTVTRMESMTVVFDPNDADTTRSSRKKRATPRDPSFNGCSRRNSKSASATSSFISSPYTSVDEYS

| SMILES | Ki [nM] |
| --- | --- |
| CN(C(=O)Oc1ccc(F)cc1)[C@H]1CN(C(=O)C2CCN(C(=O)C3(C)CC3)CC2)C[C@H]1c1ccc(Cl)c(Cl)c1 (racemic) [Example 40, rac-{(3R,4R)-4-(3,4-Dichloro-phenyl)-1-[1-(1-methyl-cyclopropanecarbonyl)-piperidine-4-carbonyl]-pyrrolidin-3-yl}-methyl-carbamic acid 4-fluoro-phenyl ester] | 4.2 |
| CN(C(=O)Oc1ccc(F)cc1)[C@@H]1CN(C(=O)C2CCN(c3ccc(O)cn3)CC2)C[C@H]1c1ccc(Cl)cc1 [Example 320, [(3S,4R)-4-(4-Chloro-phenyl)-1-(5′-hydroxy-3,4,5,6-tetrahydro-2H-[1,2′]bipyridinyl-4-carbonyl)-pyrrolidin-3-yl]-methyl-carbamic acid 4-fluoro-phenyl ester] | 6.7 |
| CN(C(=O)Oc1ccccc1F)[C@@H]1CN(C(=O)C2CCN(c3ccc(C#N)cn3)CC2)C[C@H]1c1ccc(Cl)cc1 [Example 212, [(3S,4R)-4-(4-Chloro-phenyl)-1-(5′-cyano-3,4,5,6-tetrahydro-2H-[1,2′]bipyridinyl-4-carbonyl)-pyrrolidin-3-yl]-methyl-carbamic acid 2-fluoro-phenyl ester] | 1.4 |
| Cc1ccc([C@H]2CN(C(=O)C3CCN(C(=O)C4(C)CC4)CC3)C[C@@H]2N(C)C(=O)Oc2ccc(F)cc2)cc1Cl (racemic) [Example 70, rac-{(3R,4S)-4-(3-Chloro-4-methyl-phenyl)-1-[1-(1-methyl-cyclopropanecarbonyl)-piperidine-4-carbonyl]-pyrrolidin-3-yl}-methyl-carbamic acid 4-fluoro-phenyl ester] | 1.3 |
| CC(C)COC(=O)N(C)[C@@H]1CN(C(=O)C2CCN(c3ccc(C#N)cn3)CC2)C[C@H]1c1ccc(Cl)cc1 [Example 139, [(3S,4R)-4-(4-Chloro-phenyl)-1-(5′-cyano-3,4,5,6-tetrahydro-2H-[1,2′]bipyridinyl-4-carbonyl)-pyrrolidin-3-yl]-methyl-carbamic acid isobutyl ester] | 3.9 |
| CCC(=O)N1CCC(C(=O)N2C[C@@H](N(C)C(=O)Oc3ccc(F)cc3)[C@H](c3ccc(Cl)cc3)C2)C1 (stereo partly drawn) [Example 170, [(3S,4R)-4-(4-Chloro-phenyl)-1-(1-propionyl-pyrrolidine-3-carbonyl)-pyrrolidin-3-yl]-methyl-carbamic acid 4-fluoro-phenyl ester] | 8.3 |
| CN(C(=O)Oc1ccc(F)cc1)[C@@H]1CN(C(=O)C2CCN(C3CCOCC3)CC2)C[C@H]1c1ccc(Cl)cc1 [Example 112, {(3S,4R)-4-(4-Chloro-phenyl)-1-[1-(tetrahydro-pyran-4-yl)-piperidine-4-carbonyl]-pyrrolidin-3-yl}-methyl-carbamic acid 4-fluoro-phenyl ester] | 3.7 |
| CN(C(=O)OCC1CCOC1)[C@@H]1CN(C(=O)C2CCN(c3ccc(C#N)cn3)CC2)C[C@H]1c1ccc(Cl)cc1 (stereo partly drawn) [Example 233, [(3S,4R)-4-(4-Chloro-phenyl)-1-(5′-cyano-3,4,5,6-tetrahydro-2H-[1,2′]bipyridinyl-4-carbonyl)-pyrrolidin-3-yl]-methyl-carbamic acid tetrahydro-furan-3-ylmethyl ester] | 6 |
| CN(C(=O)Oc1ccc(F)cc1)[C@@H]1CN(C(=O)C2CCNCC2)C[C@H]1c1ccc(Cl)cc1 [Example 135, [(3S,4R)-4-(4-Chloro-phenyl)-1-(piperidine-4-carbonyl)-pyrrolidin-3-yl]-methyl-carbamic acid 4-fluoro-phenyl ester] | 40.3 |
| COCC1(C(=O)N2CCC(C(=O)N3C[C@@H](N(C)C(=O)Oc4ccc(F)cc4)[C@H](c4ccc(Cl)cc4)C3)CC2)CC1 [Example 259, {(3S,4R)-4-(4-Chloro-phenyl)-1-[1-(1-methoxymethyl-cyclopropanecarbonyl)-piperidine-4-carbonyl]-pyrrolidin-3-yl}-methyl-carbamic acid 4-fluoro-phenyl ester] | 3.8 |
| CN(C(=O)OC1CC(F)(F)C1(F)F)[C@@H]1CN(C(=O)C2CCN(c3ccc(C#N)cn3)CC2)C[C@H]1c1ccc(Cl)cc1 (stereo partly drawn) [Example 176, [(3S,4R)-4-(4-Chloro-phenyl)-1-(5′-cyano-3,4,5,6-tetrahydro-2H-[1,2′]bipyridinyl-4-carbonyl)-pyrrolidin-3-yl]-methyl-carbamic acid 2,2,3,3-tetrafluorocyclobutyl ester] | 4.6 |
| Cc1ccccc1OC(=O)N(C)[C@@H]1CN(C(=O)C2CCN(c3ccc(C#N)cn3)CC2)C[C@H]1c1ccc(Cl)cc1 [Example 229, [(3S,4R)-4-(4-Chloro-phenyl)-1-(5′-cyano-3,4,5,6-tetrahydro-2H-[1,2′]bipyridinyl-4-carbonyl)-pyrrolidin-3-yl]-methyl-carbamic acid o-tolyl ester] | 16.8 |
| CN(C(=O)OCC1CC1)[C@H]1CN(C(=O)C2CCN(C(=O)C3(C)CC3)CC2)C[C@@H]1c1ccc(Cl)c(Cl)c1 (racemic) [Example 24, rac-{(3R,4S)-4-(3,4-Dichloro-phenyl)-1-[1-(1-methyl-cyclopropanecarbonyl)-piperidine-4-carbonyl]-pyrrolidin-3-yl}-methyl-carbamic acid cyclopropylmethyl ester] | 33.5 |
| CN(C(=O)Oc1ccc(C(F)(F)F)cc1)[C@@H]1CN(C(=O)C2CCN(c3ccc(C#N)cn3)CC2)C[C@H]1c1ccc(Cl)cc1 [Example 207, [(3S,4R)-4-(4-Chloro-phenyl)-1-(5′-cyano-3,4,5,6-tetrahydro-2H-[1,2′]bipyridinyl-4-carbonyl)-pyrrolidin-3-yl]-methyl-carbamic acid 4-trifluoromethyl-phenyl ester] | 0.6 |
| CC(=O)N1CCC(C(=O)N2C[C@@H](N(C)C(=O)Oc3ccc(F)cc3)[C@H](c3ccc(Cl)cc3)C2)CC1 [Example 246, [(3S,4R)-1-(1-Acetyl-piperidine-4-carbonyl)-4-(4-chloro-phenyl)-pyrrolidin-3-yl]-methyl-carbamic acid 4-fluoro-phenyl ester] | 2.3 |
| CN(C(=O)Oc1ccc(F)cc1)[C@@H]1CN(C(=O)C2CCN(C(=O)C3(C#N)CC3)CC2)C[C@H]1c1ccc(Cl)cc1 [Example 254, {(3S,4R)-4-(4-Chloro-phenyl)-1-[1-(1-cyano-cyclopropanecarbonyl)-piperidine-4-carbonyl]-pyrrolidin-3-yl}-methyl-carbamic acid 4-fluoro-phenyl ester] | 2 |

same assay, conditions: hNK-3 receptor affinity; membranes from HEK293 cells transiently expressing recombinant human NK3 receptor; [3H]SR142801; Cheng-Prussoff; read-out: Data Ki

| Ki [nM] | SMILES |
| --- | --- |
| 90.6 | COCCOC(=O)N(C)[C@@H]1CN(C(=O)C2CCN(c3ccc(C#N)cn3)CC2)C[C@H]1c1ccc(Cl)cc1 [Example 206, [(3S,4R)-4-(4-Chloro-phenyl)-1-(5′-cyano-3,4,5,6-tetrahydro-2H-[1,2′]bipyridinyl-4-carbonyl)-pyrrolidin-3-yl]-methyl-carbamic acid 2-methoxy-ethyl ester] |
| 3.6 | CN(C(=O)OCCC1CC1)[C@@H]1CN(C(=O)C2CCN(c3ccc(C#N)cn3)CC2)C[C@H]1c1ccc(Cl)cc1 [Example 219, [(3S,4R)-4-(4-Chloro-phenyl)-1-(5′-cyano-3,4,5,6-tetrahydro-2H-[1,2′]bipyridinyl-4-carbonyl)-pyrrolidin-3-yl]-methyl-carbamic acid 2-cyclopropyl-ethyl ester] |
| 56.9 | CN(C(=O)OCCC(F)(F)F)[C@H]1CN(C(=O)C2CCN(c3ccc(C#N)cn3)CC2)C[C@@H]1c1ccc(Cl)cc1 [Example 145, [(3R,4S)-4-(4-Chloro-phenyl)-1-(5′-cyano-3,4,5,6-tetrahydro-2H-[1,2′]bipyridinyl-4-carbonyl)-pyrrolidin-3-yl]-methyl-carbamic acid 3,3,3-trifluoro-propyl ester] |
